How the values were obtained:
Format in all cases: cell-based
H9c2 cells = assay: Intracellular ATP levels (CellTiter-Glo) under DOX; details: donor 25 μM, 4 h pretreatment, DOX 5 μM 24 h
Method: (§1) Figure 6. a) Basal sulfane sulfur (SS) levels in H9c2 cardiomyocyte, MDA-MB-468, MCF-7, and HepG2 cell lines as detected by SSP4 fluorescence. b) Representative images and c) basal levels of mitochondrial membrane potential (MMP) in H9c2 and cancer cells (MDA-MB-468, MCF-7, and HepG2). d) Impact of APT-1 (25 μM) or APT-1-TPP (25 μM) on MMP in DOX (5 μM)-treated (d) H9c2 and e) HepG2 cells. Impact of APT-1 (25 μM) and APT-1-TPP (25 μM) on ATP levels in DOX (5 μM)-treated f) H9c2 and g) HepG2 cells. Results are expressed as mean ± SEM, n = 3–6; *P < 0.05, **P < 0.01, ***P < 0.001, ****P < 0.0001. Significances in (a) and (c) are presented with respect to H9c2 cells.
(§2) We then examined how RSSH donors influence MMP during DOX exposure. As expected, DOX alone induced mitochondrial depolarization in H9c2 cells, reducing MMP to ca. 50% of control (Figure 6d). […] To complement these observations, we quantified intracellular ATP levels as a functional readout of mitochondrial activity. […]
(§3) Briefly, H9c2 cells and HepG2 cells were seeded in 96-well white-bottom plate (Alkali Scientific, SKU:TPW9096, TC-treated) at 5000 cells/well. After treatment (Ctrl, 5 μM DOX alone, 4 h pretreatment of 25 μM APT-1 + 24 h cotreatment with 5 μM DOX, and 4 h pretreatment of 25 μM APT-1-TPP + 24 h cotreatment with 5 μM DOX, in clear DMEM medium with 10% FBS), cells were equilibrated at rt for 30 min before CellTiter-Glo® reagent was added to each well. Plates were then placed on an orbital shaker for 2 min and incubated at rt for another 20 min.
(§4) Chemiluminescence was measured using Tecan plate reader (SPARK Part No. 30124664 Version 1.7, serial No. 1909010319). Cellular AT P concentration was calculated based on the AT P calibration curve and normalized to cell count. […] Each treatment condition was performed in 6 technical replicates per biological replicate, and the experiment was independently repeated three times (n = 3 biological replicates).
(§5) Data are presented as mean ± SEM. […]

HepG2 cells [1] = assay: Intracellular ATP levels (CellTiter-Glo) under DOX; details: donor 25 μM, 4 h pretreatment, DOX 5 μM 24 h
Method: as §1, §2, §3, §4, §5

HepG2 cells [2] = assay: Cytotoxicity of RSSH donors, CCK-8 assay; details: up to 200 μM, 24 h
Method: We next evaluated the effects of RSSH donors on DOX activity in three representative cancer cell lines: triple-negative breast cancer MDA-MB-468, ER-positive breast cancer MCF-7, and hepatocellular carcinoma HepG2.
Figure S22. Measurement of Cys-SH and GSH in cytoplasm (A, B) and mitochondria (C, D) of H9c2 cells treated with APT-1 (200 µM) APT-1-TPP (200 µM), or vehicle (0.01% DMSO in serum-free medium) for 2 h. Data are mean ± SEM (n = 3); *p ≤ 0.05, **p ≤ 0.01.
Cytotoxicity Assessment of Hydropersulfide Precursors in H9c2 and HepG2 cells Cell viability was measured using the Cell Counting Kit-8 (CCK-8, Dojindo).[7] […] The plates were then incubated for 1-2 h before measuring absorbance at 450 nm using a plate reader […]
calculated as: % Viability = 100 × [Abs₄₅₀ (treated cells) / Abs₄₅₀ (vehicle control)]. […]
Figure S23. […] Results are expressed as mean ± SEM, n≥3; *P<0.05, **P<0.01, ***P<0.001, ****P<0.0001. […]
Cytoprotective studies were performed as previously described.[8] […] The plates were then incubated for 1-2 h before measuring absorbance at […]
The relative % cell viability was calculated as 100 times the ratio of Abs450 (RSSH donor + DOX-exposed) to Abs450 (vehicle, non-DOX-exposed). […]
Basal sulfane sulfur levels were quantified using the fluorescent probe Sulfobiotics SSP4 (Dojindo, SB10) as previously described.[5] […]

SMILES | effect on DOX-reduced ATP levels (H9c2 cells) | effect on DOX-induced ATP depletion (HepG2 cells [1]) | cytotoxicity of donor alone (HepG2 cells [2])
CC(=O)NC(C(=O)N(C)CCC[P+](c1ccccc1)(c1ccccc1)c1ccccc1)C(C)(C)SSC(=O)N(C)CCOC(C)=O (stereo not drawn) [APT-1-TPP] | restored | neither donor rescued DOX-induced ATP depletion | non-toxic
COC(=O)C(NC(C)=O)C(C)(C)SSC(=O)N(C)CCOC(C)=O (stereo not drawn) [APT-1] | restored | neither donor rescued DOX-induced ATP depletion | non-toxic
